Experimental data: patent US5196327A, “Process for producing antifungal fermentation products and compositions thereof” (Merck & Co., Inc., priority 1991, dated 1993)
≈ marks a conversion by molar mass, not a printed value. Where two headings read alike, the source gives them in different places.

Columns and labels:
[1] = test system: panel of representative yeasts, filamentous fungi (molds) and bacteria; assay: Antifungal disc diffusion assay, panel; type: cell-based; conditions: panel of organisms
Description: (§1) The antifungal activity of the compounds may be detected in an antifungal assay employing disc diffusion methods against a panel of representative yeasts, filamentous fungi (molds) and bacteria.
(§2) The filamentous fungi used in the assay are Cochliobolus miyabeanus, Penicillium sp. (three strains), Aspergillus niger, Trichoderma sp., Phoma sp., Trichoderma lignorum, Fusarium oxysporum, Ustilago maydis, Ceratocystis ulmi, Alternaria solani, Verticillium serrae, Botrytis allii, Scopulariopsis communis, Cephalosporium sp., Cercospora beticola, […], Rhizomucor miehei, Aspergillus flavus and Aspergillus fumigatus.
(§3) The yeasts employed in the assay are Saccharomyces cerevisiae, Candida albicans, […], Candida tropicalis, Candida rugosa, Brettanomyces bruxellensis, Torulospora hansenii, Candida quilliermondi, Candida pseudotropicalis, Torulopsis glabrata, Cryptococcus albidus, and Cryptococcus laurentii.
The bacteria employed in the assay are Streptomyces sp., Acholeplasma laidlawii and Bacillus subtilis.
(§4) For carrying out the assay, seeded assay plates are prepared in the following manner according to the type of assay strain.
(§5) Inocula for filamentous fungi are prepared by scraping the surface of stock plates maintained on potato dextrose agar with a moistened sterile dacron swab. The spores and mycelia are then suspended in 10 milliliters of sterile potato dextrose broth and adjusted to 70 percent transmission at 660 nm.
(§6) Inocula for yeasts and bacterial strains are prepared from overnight broth cultures then diluted into potato dextrose agar to a final concentration of either 40 percent or 70 percent transmission at 660 nm.
When the organism is Acholephasma laidlawii, it is suspended in brain heart infusion broth supplemented with 2.5 percent yeast extract and 20 percent heat inactivated horse serum, and the broth adjusted to a final concentration of 60 percent transmission at 660 nm. […]
(§7) Following incubation, the inhibition zones are measured and recorded. […]

Ustilago maydis = assay: Antifungal disc diffusion assay; type: cell-based
Description: as §1, §2, §4, §5
(§8) The seeded agar media thus prepared are dispensed into petri dishes for assays (11 milliliters per dish).
The samples to be tested for production of antifungal agent are applied to 6.2 mm. filter paper discs (25 microliter/disc) and air dried at 24° C. […]
as §7

[2] = test system: Candida albicans (five strains); assay: Antifungal disc diffusion assay; type: cell-based; conditions: five strains of Candida albicans
Description: as §1, §3, §4, §6
For three strains of Candida albicans and one strain of Saccharomyces cerevisiae, sterile saline is employed in place of potato dextrose broth. Assay plates are prepared by diluting the inoculum into appropriate molten agar medium, cooled to 45° C. to obtain a final concentration of 4 percent.
The seeded agar media thus prepared are dispensed into petri dishes for assays (11 milliliters per dish). […]
as §7

Candida tropicalis = assay: Antifungal disc diffusion assay; type: cell-based
Description: as §1, §3, §4, §6, §8
(§9) The samples to be tested for production of antifungal agent are applied to 6.2 mm. filter paper discs (25 microliter/disc) and air dried at 24° C. When the sample to be tested is crude broth, it may be centrifuged prior to application. The discs bearing the material to be tested are then applied employing sterile conditions to the seeded assay plates and the samples rewet with 25 percent sterile aqueous dimethylsulfoxide (25 μl/disc). The assay plates are then incubated at either 28° C. or 37° C. for 24 hours. In one of the assays for Bacillus subtilis, the sample is applied to a disc previously impregnated with 4M potassium chloride at 25 μl/disc and then air dried.
(§10) Following incubation, the inhibition zones are measured and recorded. The measurements are made from the extreme edge where growth differs from the background zone. The growths are noted as to appearance as fuzzy edge and clear center, hazy throughout, slightly hazy, very hazy or ringed.

Cryptococcus albidus = assay: Antifungal disc diffusion assay; type: cell-based
Description: as §1, §3, §4, §6, §8, §9, §10

Torulospora hansenii = assay: Antifungal disc diffusion assay; type: cell-based
Description: as §1, §3, §4, §6, §8, §9, §10

Aspergillus niger = assay: Antifungal disc diffusion assay; type: cell-based
Description: as §1, §2, §3, §4
Inocula for filamentous fungi are prepared by scraping the surface of stock plates maintained on potato dextrose agar with a moistened sterile dacron swab. […]
as §7

[3] = test system: Aspergillus fumigatus MF4839; assay: Agar dilution assay, MIC; type: cell-based; conditions: strain MF4839; yeast nitrogen base dextrose agar; read-out: Minimum Inhibitory Concentration
Description: (§11) In separate operations, in vitro antifungal activity determinations were carried out with Compound IB and with Compound IC against a panel of filamentous and yeast-like fungi employing yeast nitrogen base dextrose agar medium. In carrying out the assay, the compound to be tested was solubilized in 10 percent dimethyl sulfoxide (DMSO) supplemented with one drop of Tween 20. Two-fold dilutions were made with sterile distilled water/10% DMSO to obtain final concentrations in the agar dilution assay plates ranging from 64 to 0.06 μg/ml in the operation with Compound IB and from 128 to 0.06 μg/ml in the operation with Compound IC.
(§12) Nystatin (commercially available antifungal agent) was used as a positive antifungal control.

Ca. guilliermondi MY1019 = assay: Agar dilution assay, MIC; type: cell-based; conditions: strain MY1019; yeast nitrogen base dextrose agar; read-out: Minimum Inhibitory Concentration
Description: as §11, §12

Ca. krusei MY1020 = assay: Agar dilution assay, MIC; type: cell-based; conditions: strain MY1020; yeast nitrogen base dextrose agar; read-out: Minimum Inhibitory Concentration
Description: as §11, §12

Ca. parapsilosis MY1009 = assay: Agar dilution assay, MIC; type: cell-based; conditions: strain MY1009; yeast nitrogen base dextrose agar; read-out: Minimum Inhibitory Concentration
Description: as §11, §12

Ca. parapsilosis MY1010 = assay: Agar dilution assay, MIC; type: cell-based; conditions: strain MY1010; yeast nitrogen base dextrose agar; read-out: Minimum Inhibitory Concentration
Description: as §11, §12

Ca. stellatoidea MY1017 = assay: Agar dilution assay, MIC; type: cell-based; conditions: strain MY1017; yeast nitrogen base dextrose agar; read-out: Minimum Inhibitory Concentration
Description: as §11, §12

Candida albicans MY1058 = assay: Agar dilution assay, MIC; type: cell-based; conditions: strain MY1058; yeast nitrogen base dextrose agar; read-out: Minimum Inhibitory Concentration
Description: as §11, §12

[4] = test system: Cryptococcus neoformans MY1051; assay: Agar dilution assay, MIC; type: cell-based; conditions: strain MY1051; yeast nitrogen base dextrose agar; read-out: Minimum Inhibitory Concentration
Description: as §11, §12

[5] = test system: Penicillium italicum MF2819; assay: Agar dilution assay, MIC; type: cell-based; conditions: strain MF2819; yeast nitrogen base dextrose agar; read-out: Minimum Inhibitory Concentration
Description: as §11, §12

[6] = test system: Torulopsis glabrata MY1059; assay: Agar dilution assay, MIC; type: cell-based; conditions: strain MY1059; yeast nitrogen base dextrose agar; read-out: Minimum Inhibitory Concentration
Description: as §11, §12

Cr. neoformans MY1146 = assay: Agar dilution assay, MIC; type: cell-based, Cryptococcus neoformans; conditions: strain MY1146; yeast nitrogen base dextrose agar; read-out: Minimum Inhibitory Concentration
Description: as §11, §12

Ca. albicans MY0992 = assay: Agar dilution assay, MIC; type: cell-based, Candida albicans; conditions: strain MY0992; yeast nitrogen base dextrose agar; read-out: Minimum Inhibitory Concentration
Description: as §11, §12

Ca. albicans MY1013 = assay: Agar dilution assay, MIC; type: cell-based, Candida albicans; conditions: strain MY1013; yeast nitrogen base dextrose agar; read-out: Minimum Inhibitory Concentration
Description: as §11, §12

Ca. albicans MY1029 = assay: Agar dilution assay, MIC; type: cell-based, Candida albicans; conditions: strain MY1029; yeast nitrogen base dextrose agar; read-out: Minimum Inhibitory Concentration
Description: as §11, §12

Ca. albicans MY1055 = assay: Agar dilution assay, MIC; type: cell-based, Candida albicans; conditions: strain MY1055; yeast nitrogen base dextrose agar; read-out: Minimum Inhibitory Concentration
Description: as §11, §12

Ca. tropicalis MY1011 = assay: Agar dilution assay, MIC; type: cell-based, Candida tropicalis; conditions: strain MY1011; yeast nitrogen base dextrose agar; read-out: Minimum Inhibitory Concentration
Description: as §11, §12

Ca. tropicalis MY1012 = assay: Agar dilution assay, MIC; type: cell-based, Candida tropicalis; conditions: strain MY1012; yeast nitrogen base dextrose agar; read-out: Minimum Inhibitory Concentration
Description: as §11, §12

[7] = test system: Ca. pseudotropicalis MY1040; assay: Agar dilution assay, MIC; type: cell-based, Candida pseudotropicalis; conditions: strain MY1040; yeast nitrogen base dextrose agar; read-out: Minimum Inhibitory Concentration
Description: as §11, §12

Ca. rugosa MY1022 = assay: Agar dilution assay, MIC; type: cell-based, Candida rugosa; conditions: strain MY1022; yeast nitrogen base dextrose agar; read-out: Minimum Inhibitory Concentration
Description: as §11, §12

Sac. cerevisiae MY1027 = assay: Agar dilution assay, MIC; type: cell-based, Saccharomyces cerevisiae; conditions: Saccharomyces cerevisiae; strain MY1027; yeast nitrogen base dextrose agar; read-out: Minimum Inhibitory Concentration
Description: as §11, §12

A. flavus MF0383 = assay: Agar dilution assay, MIC; type: cell-based, Aspergillus flavus; conditions: strain MF0383; yeast nitrogen base dextrose agar; read-out: Minimum Inhibitory Concentration
Description: as §11, §12

For `CCCCCCC(O)CCCCCCC=CC(O)C(O)C(O)C(NC(=N)N)C(=O)O` (stereo not drawn) [Compound IA, 2-guanidino-3,4,5,14-tetrahydroxy-6-eicosenoic acid], the antifungal activity [1] was “good activity against almost all of the organisms”, the antifungal activity ([1]; listed as I-A) was “activity against a number of fungal organisms” and the antifungal activity (Ustilago maydis) was “good activity”. The antifungal activity (Ustilago maydis; listed as I-A) was “especially good activity”, the antifungal activity [2] was “good activity” and the antifungal activity (Candida tropicalis) was “good activity”. For the same molecule, the antifungal activity (Cryptococcus albidus) was “good activity”, the antifungal activity (Torulospora hansenii) was “good activity” and the antifungal activity (Aspergillus niger) was “good activity”.
For `CCCCCCC(O)CCCCCCC=CC(OC(C)=O)C(O)C(O)C(N)C(=O)O` (stereo not drawn) [Compound IC, 5-acetyloxy-2-amino-3,4,14-trihydroxy-6-eicosenoic acid], the MIC [3] was 64 µg/mL (≈ 148 µM), the MIC (Ca. guilliermondi MY1019) was > 128 µg/mL and the MIC (Ca. krusei MY1020) was > 128 µg/mL. The MIC (Ca. parapsilosis MY1009) was > 128 µg/mL, the MIC (Ca. parapsilosis MY1010) was 8 µg/mL (≈ 18.5 µM) and the MIC (Ca. stellatoidea MY1017) was 32 µg/mL (≈ 74.1 µM). The MIC (Candida albicans MY1058) was 32 µg/mL (≈ 74.1 µM), the MIC [4] was 2 µg/mL (≈ 4.63 µM) and the MIC [5] was 32 µg/mL (≈ 74.1 µM). It also gave an MIC [6] of 16 µg/mL (≈ 37.1 µM), an MIC (Cr. neoformans MY1146) of 2 µg/mL (≈ 4.63 µM) and an MIC (Ca. albicans MY0992) of 128 µg/mL (≈ 297 µM). For the same molecule, the MIC (Ca. albicans MY1013) was 128 µg/mL (≈ 297 µM), the MIC (Ca. albicans MY1029) was > 128 µg/mL and the MIC (Ca. albicans MY1055) was 128 µg/mL (≈ 297 µM). For the same molecule, the MIC (Ca. tropicalis MY1011) was 32 µg/mL (≈ 74.1 µM), the MIC (Ca. tropicalis MY1012) was 2 µg/mL (≈ 4.63 µM) and the MIC [7] was 2 µg/mL (≈ 4.63 µM). The MIC (Ca. rugosa MY1022) was > 128 µg/mL, the MIC (Sac. cerevisiae MY1027) was 32 µg/mL (≈ 74.1 µM) and the MIC (A. flavus MF0383) was 64 µg/mL (≈ 148 µM).
